Assay [1] concerns the target T1, human adenosine A2A receptor (Homo sapiens, UniProt P29274).
T1 construct: expressed in transfected cells; host or cells: CHO cells (membrane preparation)
As to the kind of experiment: Human cloned A2A adenosine receptor binding assay ([3H]ZM241385 displacement, CHO membranes). Particulars: [3H]ZM241385, CHO cells transfected with human recombinant A2A receptors. The protocol: CHO Membranes Preparation
The human adenosine receptors have been transfected in CHO cells according with the method previously described by Klotz et al. (Naunyn-Schmied. Arch Pharm. 1998, 357: 1-9). Briefly, the cells are grown adherently and maintained in Dulbecco's Modified Eagles Medium with nutrient mixture F12 (DMEM/F12) without nucleosides, containing 10% fetal calf serum, penicillin (100 U/mL), streptomycin (100 μg/mL), L-glutamine (2 mM) and Geneticin (G418, 0.2 mg/ml) at 37° C. in 5% CO2/95% air. For membrane preparation the culture medium is removed and the cells are ished with phosphate-buffered saline and scraped off T75 flasks in ice-cold hypo tonic buffer (5 mM Tris HCl, 1 mM EDTA, pH 7.4). The cell suspension is homogenized with Polytron, the homogenate is spun for 10 min at 1000×g and the supernatant is then centrifuged for 30 min at 100,000×g. […]
All new synthesized compounds have been tested to evaluate their affinity to human A1, A2A, A2B and A3 adenosine receptors. […] Non-specific binding is determined in the presence of 10 μM of CHA and this is always ≦10% of the total binding. […] Non-specific binding is determined in the presence of 1 μM ZM 241385 and is about 20% of total binding. […] Bound and free radioactivity are separated by filtering the assay mixture through Whatman GF/B glass fiber filters using a Micro-Mate 196 cell harvester (Packard Instrument Co.). The filter bound radioactivity is counted on a Top Count (efficiency 57%) with Micro-Scint 20.
The protein concentration is determined according to a Bio-Rad method (Bradford, Anal Biochem. 1976, 72: 248-254) with bovine albumin as a standard reference. Inhibitory binding constant, Ki, values are calculated from those of IC50 according to Cheng & Prusoff equation (Biochem. Pharmacol. 1973, 22: 3099-3108): Ki=IC50/(1+[C*]/KD*) where [C*] is the concentration of the radioligand and KD* its dissociation constant. […] Data are expressed as geometric mean with 95% confidence limits in parentheses.

In another assay the test system is 6-OHDA lesion rats. Description: 6-OHDA lesion of the middle forebrain bundle in rats, Protocol B (apomorphine-induced rotation). Particulars: 30 mg/kg single i.p. dose; threshold dose of apomorphine 0.02 mg/kg i.p.; significant increase, p≦0.05; FIG. 1. In kind it is in vivo, rat. The protocol:
Adult male Sprague-Dowley rats (Harlan UK ltd., Bicester, Oxon, UK), weighing 255±15 g, are used in all experiments. The rats are housed in groups of up to 5 per cage, and the animals are fed an expanded rodent diet of RM1(E) SQC (Special Diets Services, Witham, UK) ab libitum, and allowed free access to water, under controlled temperature and 12 hour light-dark cycle.
The test compounds are formulated for dosing by initially wet grinding a known amount in approximately 10% of the final volume of vehicle, i.e., propylene glycol/polyethylene glycol (PEG400)/glucose (D5W)-15/15/70 v %, in a mortal and pestle. Once suitably wetted, approximately 30% of the remaining vehicle is added, stirred for up to 10 min, and then sonicated for approximately 5 min. This step is repeated twice, using remaining vehicle to provide even suspensions of 0.6, 2 and 6 mg/mL. No correction factor is applied. All test substance formulations are clear to light tan colored suspensions, stored at RT and protected from light until dosing. The dose volume for the test compounds is 5 mL/kg to provide dosages of 3, 10 and 30 mg/kg, respectively.
Apomorphine hydrochloride (HCl) hemihydrate (Sigma, UK) is formulated for dosing by dissolving a known amount in 0.9% w/v sodium chloride (Baxter Healthcare Ltd., UK) to produce a clear, colorless solution of 0.02 mg/mL. […]

SMILES strings stand for the structures.

In general, Ki refers to a dissociation constant, usually derived from enzyme kinetics or from competition with a known ligand.

T1 sequence (P29274 whole entry): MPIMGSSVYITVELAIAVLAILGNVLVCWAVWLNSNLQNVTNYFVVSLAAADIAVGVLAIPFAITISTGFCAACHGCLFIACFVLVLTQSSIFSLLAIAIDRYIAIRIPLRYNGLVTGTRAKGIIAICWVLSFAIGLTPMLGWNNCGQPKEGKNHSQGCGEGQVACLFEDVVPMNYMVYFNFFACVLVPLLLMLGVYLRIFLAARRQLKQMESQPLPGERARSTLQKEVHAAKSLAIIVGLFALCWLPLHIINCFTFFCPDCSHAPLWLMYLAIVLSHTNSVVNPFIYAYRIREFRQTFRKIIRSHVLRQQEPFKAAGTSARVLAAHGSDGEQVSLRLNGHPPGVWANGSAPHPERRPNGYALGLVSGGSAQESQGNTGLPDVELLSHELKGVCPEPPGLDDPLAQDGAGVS

Consider `CN(CCN(C)c1ccc(F)cc1F)CCn1ccc2c1nc(N)n1nc(-c3ccco3)nc21` [Example 29, N^1-(2-(5-Amino-2-(furan-2-yl)-7H-pyrrolo[3,2-e][1,2,4]triazolo[1,5-c]pyrimidin-7-yl)ethyl)-N^2-(2,4-difluorophenyl)-N^1,N^2-dimethylethane-1,2-diamine], for which the Ki in assay [1] is around 28 nM. On the same count and under the same terms, the same measure for `Nc1nc2c(ccn2CCN2CCN(C(=O)c3ccc(F)cc3F)CC2)c2nc(-c3ccco3)nn12` [Example 4, (4-(2-(5-Amino-2-(furan-2-yl)-7H-pyrrolo[3,2-e][1,2,4]triazolo[1,5-c]pyrimidin-7-yl)ethyl)piperazin-1-yl)(2,4-difluorophenyl)methanone]: around 1 nM. Take `Nc1nc2c(ccn2CCN2CCN(c3ccc(F)cc3F)CC2)c2nc(-c3ccco3)nn12` [Example 30, 7-(2-(4-(2,4-Difluorophenyl)piperazin-1-yl)ethyl)-2-(furan-2-yl)-7H-pyrrolo[3,2-e][1,2,4]triazolo[1,5-c]pyrimidin-5-amine]: the “number of contralateral rotations” value in the assay with 6-OHDA lesion rats was 228±38. Also, in assay [1], the Ki was around 5 nM.

Values taken from patent publication US7691869B2, “Pyrrolotriazolopyrimidine derivatives, pharmaceutical compositions containing them and methods of treating conditions and diseases mediated by the adenosine A2A receptor activity” (King Pharmaceuticals Research and Development, Inc., priority 2008, dated 2010).
